Experimental data from US8999355B2, “Non-rinse off cosmetic composition and a cosmetic product comprising said composition” (Natura Cosmeticos S.A., priority 2005, dated 2015).

Assay: In vitro tests of lamellar structure formation
Format: physicochemical
Details: RMT associated to palmitic acid

ricinoleyl monomaleate triglyceride [RMT]
structure formed: form a lamellar structure very similar to the lamellar gel structure that is naturally present in healthy skins
